Experimental data as given in patent US20230295134A1, “USE OF PHENYLQUINOLINONE DERIVATIVE OR FLAVONOID DERIVATIVE FOR TREATING NEUROPATHIC PAIN” (HANGZHOU BIO-SINCERITY PHARMA-TECH CO., LTD., priority 2019, published 2023).

Tests used:
PSL model rats = assay: Heat pain threshold in partial sciatic nerve ligation (PSL) model; type: in vivo, SD rats; details: for heat pain threshold vs Pregabalin group: comparator 30 mg/kg Pregabalin
Procedure: Male SD rats, weighting 200-250 g, were used to establish partial sciatic nerve ligation (PSL) model. The rats were subjected to ligation of the right sciatic nerve at high-tight level, so that ⅓-½ thickness of the sciatic nerve was trapped in the ligature, and then the wound was closed. The rats in sham group were subjected to the same operative procedure as the PSL model but without nerve ligation. On the sixth day after operation, heat pain threshold was measured in PSL model rats with Plantar Test Apparatus (BME-410) for 2 days to choose rats with stable heat pain threshold, which were randomly divided into 5 groups: 1) model; 2) 30 mg/kg Pregabalin; 3) 3 mg/kg Compound I-6; 4) 1 mg/kg Compound I-6; and 5) 0.3 mg/kg Compound I-6. Group 2-5 were given corresponding medicines orally with the dose of 1 ml/100 g, while the Group model and normal were given saline of the same volume with the same method. Heat pain threshold was measured before administration and 1, 2, 4, 6 h after intragastric administration, and the results were shown in FIG. 1.
Male SD rats, weighting 200-250g, were used to establish partial sciatic nerve ligation (PSL) model. The rats were subjected to ligation of the right sciatic nerve at high-tight level, so that ⅓-½ thickness of the sciatic nerve was trapped in the ligature, and then the wound was closed. The rats in sham group were subjected to the same operative procedure as the PSL model but without nerve ligation. On the sixth day after operation, heat pain threshold was measured in PSL model rats with Plantar Test Apparatus (BME-410) for 2 days to choose rats with stable heat pain threshold, which were randomly divided into 7 groups: 1) model; 2) 50 mg/kg Gabapentin; 3) 100 mg/kg Carbamazepine; 4) 10 mg/kg Amitriptyline; 5) 1 mg/kg Compound I-4; 6) 1 mg/kg Compound I-6; and 7) 1 mg/kg Compound II-4. Group 2 -7 were given corresponding medicines orally with the dose of 1 ml/100 g, while the Group model and normal were given saline of the same volume with the same method. Heat pain threshold was measured before and 1, 2, 4, 6h after intragastric administration, and the results were shown in FIG. 2.

CCI model rats [1] = assay: Mechanical withdrawal threshold in chronic constrictive injury (CCI) model, single dose; type: in vivo, SD rats
Excerpt: Male SD rats, weighting 200-250 g, were used to establish chronic constrictive injury (CCI) model. The common sciatic nerve was exposed at the level of the middle of the thigh, and 4 ligatures (4.0 chromic gut, 0.15 mm) were tied loosely with about 1-2 mm spacing to the position proximal to the sciatic's trifurcation. The rats in sham group were subjected to the same operative procedure as the CCI model but without nerve ligation. On the seventh day after operation, mechanical withdrawal threshold was measured in CCI model rats with Electric Von Frey (IITC-2391) for 2 days to choose rats with stable mechanical withdrawal threshold, which were divided into 5 groups: 1) model; 2) 50 mg/kg Gabapentin; 3) 9 mg/kg Compound I-4; 4) 3 mg/kg Compound I-4; and 5) 1 mg/kg Compound I-4. Group 2 -5 were given corresponding medicines orally with the dose of 1 ml/100 g, while the Group model and normal were given saline of the same volume with the same method. Mechanical withdrawal threshold was measured before administration and 1, 2, 4, 6 h after intragastric administration, and the results were shown in FIG. 3.

[2] = test system: diabetic neuropathic pain model; assay: Heat pain threshold in STZ-induced diabetic neuropathic pain model; type: in vivo, SD rats; details: STZ rats; for heat pain threshold of diabetic neuropathic pain model: single dose PO, I-6 1 mg/kg, Gabapentin 50 mg/kg
Procedure: Male SD rats (200-250 g) with normal blood sugar were fasted but had free access to water for 12 hours. The diabetes model was induced by intraperitoneal injection of 60 mg/kg streptozotocin (STZ), and was examined by 2-hour postprandial sugar level on day 7 after injection, which should be higher than 16 mmol/L. The rats in normal group were given an equal volume of citric acid-sodium citrate buffer (pH 4.2). On day 14 after injection, the heat pain threshold of rats in diabetes model or normal group were measured with Plantar Test Apparatus (BME-410) to examine the success of diabetic neuropathic pain model. The rats in diabetic neuropathic pain model were divided into 3 groups: 1) model; 2) 50 mg/kg Gabapentin; and 3) 1 mg/kg Compound I-6. Group 2 and 3 were given corresponding medicines orally with the dose of 1 ml/100 g, while the Group model and normal were given saline of the same volume with the same method. Heat pain threshold was measured before administration and 1, 2, 4, 6 h after administration, and the results were shown in FIG. 4.

[3] = In vivo pharmacokinetic studies (bioavailability); details: SD rats
Procedure: The in vivo pharmacokinetic studies of Compound I-6 were conducted in SD rats (n=3).

[4] = Security: intragastric administration of different dosages in mice; type: in vivo; details: mouse, in vivo, po; ICR mice; intragastric administration; read-out: half lethal dose (LD50)
ICR mice = assay: as above; type: in vivo
CCI model rats [5] = assay: Mechanical withdrawal threshold in CCI model, 5 days repeated administration; type: in vivo, SD rats
Excerpt: Male SD rats, weighting 200-250 g, were used to establish CCI model. The common sciatic nerve was exposed at the level of the middle of the thigh, and 4 ligatures (4.0 chromic gut, 0.15 mm) were tied loosely with about 1-2 mm spacing to the position proximal to the sciatic's trifurcation, then the wound was closed. The rats in sham group were subjected to the same operative procedure as the CCI model but without nerve ligation. On the seventh day after operation, mechanical withdrawal threshold was measured in CCI model rats with Electric Von Frey (IITC-2391) for 2 days to choose rats with stable mechanical withdrawal threshold, which were divided into 5 groups: 1) model; 2) 50 mg/kg Gabapentin; 3) 3 mg/kg Compound I-10; 4) 1 mg/kg Compound I-10; and 5) 0.3 mg/kg Compound I-10. Group 2-5 were given corresponding medicines orally with the dose of 1 ml/100 g for 5 days, while the Group model and normal were given saline of the same volume with the same method. Mechanical withdrawal threshold was measured before and 2 h after intragastric administration, and the results were shown in FIG. 6.

[6] = test system: OXA neuropathic pain model rats; assay: Mechanical withdrawal threshold in Oxaliplatin chemotherapy-induced neuropathic pain model; type: in vivo, SD rats; details: for mechanical withdrawal threshold vs Pregabalin: 2nd-4th hour after administration
Procedure: Male SD rats (200-250 g) were injected 4 mg/kg of Oxaliplatin by intraperitoneal on day 1, 2, 8, 9, 15, 16, 22 and 23 to establish chemotherapy-induced neuropathic pain model. On day 24, the mechanical withdrawal threshold of rats in group normal and model were measured with Electric Von Frey (IITC-2391) to choose rats with stable mechanical withdrawal threshold, which were randomly divided into 5 groups: 1) model; 2) 30 mg/kg Pregabalin; 3) 9 mg/kg Compound II-4; 4) 3 mg/kg Compound II-4; and 5) 1 mg/kg Compound II-4. Group 2 -5 were given corresponding medicines orally with the dose of 1 ml/100g, while the Group model and normal were given saline of the same volume with the same method. Mechanical withdrawal threshold was measured before administration and 1, 2, 4, 6h after single administration, and the results were shown in FIG. 5.

[7] = 1 mg/kg PO single dose, since 1 hour after administration
[8] = 1 mg/kg PO, comparator 50 mg/kg Gabapentin

For `Cn1c(-c2ccc(OCCCN3CCCCC3)cc2)cc(=O)c2ccccc21` [Compound I-4, 1-Methyl-2-(4-(3-(Piperidin-1-Yl)Propoxy)Phenyl)Quinolin-4(1H)-One], the “heat pain threshold vs model group” value (PSL model rats; [7]) was “significantly higher than model group”, the “mechanical withdrawal threshold vs model group” value (CCI model rats [1]; 3 mg/kg PO, 1st-4th hour after administration) was “significantly higher (P<0.01) than model group” and the “mechanical withdrawal threshold, relation to dose” value (CCI model rats [1]; single dose 1, 3 or 9 mg/kg PO) was “dose-dependent increase”. The effective time (CCI model rats [1]; single dose PO, compared with 50 mg/kg Gabapentin) was “longer than Gabapentin”.

With `CCn1c(-c2ccc(OCCCN3CCCCC3)cc2)cc(=O)c2ccccc21` [Compound I-6, 1-Ethyl-2-(4-(3-(Piperidin-1-Yl)Propoxy)Phenyl)Quinolin-4(1H)-One] the “heat pain threshold vs model group” value (PSL model rats; 0.3 mg/kg PO, 2nd hour after administration) was “significantly higher (P<0.01) than model group”, the “heat pain threshold vs model group” value (PSL model rats; [7]) was “significantly higher than model group” and the “heat pain threshold vs Pregabalin group” value (PSL model rats; 1.0 mg/kg PO) was “raised to be compared to 30 mg/kg Pregabalin group”. The “heat pain threshold vs sham group” value (PSL model rats; 3.0 mg/kg PO, 1st-2nd hour after administration) was “further improved to the level equal to sham group”, the “heat pain threshold vs Pregabalin group” value (PSL model rats; 3.0 mg/kg PO, 1st-2nd hour) was “better than Pregabalin group” and the “heat pain threshold, relation to dose” value (PSL model rats; single dose 0.3, 1 or 3 mg/kg PO) was “increased in a dose-dependent manner”. The “effective time vs Gabapentin” value [2, 8] was “longer effective time”, the “heat pain threshold vs Gabapentin” value [2, 8] was “significantly higher heat pain threshold (P<0.01)” and the “heat pain threshold of diabetic neuropathic pain model” value [2] was “could improve the heat pain threshold”. For the same compound, the “time at which peak plasma concentrations occur” value ([3]; P.O 10.0 mg/kg) was 2.00 ± 1.73 h, the half-life ([3]; Sprague-Dawley (SD), rat, plasma, iv, 1 mg/kg, I.V 1.00mg/kg) was 360 ± 85.8 min and the bioavailability ([3]; Sprague-Dawley (SD), rat, plasma, po, 10 mg/kg, read-out: absolute bioavailability) was 51.3%. For the same compound, the half-life ([3]; Sprague-Dawley (SD), rat, plasma, po, P.O 10.0 mg/kg) was 227 ± 7.2 min, the LD50 [4] was > 1020 mg/kg and the “signs after intragastric administration” value (ICR mice; 64 mg/kg) was “no abnormal signs”. The “signs after intragastric administration” value (ICR mice; 256 mg/kg) was “one of the mice given a dose of 256 mg/kg suffered convulsions but recovered on the second day” and the “signs after intragastric administration” value (ICR mice; 1024 mg/kg) was “one of the mice given a dose of 1024 mg/kg suffered convulsions and finally died on the second day”.

With `COc1c(-c2ccc(OCCCN3CCCCC3)cc2)n(C)c2ccccc2c1=O` [Compound I-10, 3-Methoxy-1-Methyl-2-(4-(3-(Piperidin-1-Yl)Propoxy)Phenyl)Quinolin-4(1H)-One] the “mechanical withdrawal threshold vs model group” value (CCI model rats [5]; 1 mg/kg PO for 5 days, 1st-5th day after administration) was “significantly higher (P<0.01) than model group”, the “dose-dependency and stability of efficacy” value (CCI model rats [5]; 5 days PO, compared with 50 mg/kg Gabapentin) was “better dose-dependency and stability of efficacy compared to Gabapentin” and the “mechanical withdrawal threshold, relation to dose” value (CCI model rats [5]; repeated administration 5 days, 0.3, 1 or 3 mg/kg PO) was “increased in a dose-dependent manner”.

In the case of `COc1c(-c2ccc(OCCCN3CCCCC3)cc2)oc2ccccc2c1=O` [Compound II-4, 3-Methoxy-2-(4-(3-(Piperidin-1-Yl)Propoxy)Phenyl)-4H-Chromen-4-One], the “heat pain threshold vs model group” value (PSL model rats; [7]) is reported as “significantly higher than model group”, the “mechanical withdrawal threshold vs model group” value ([6]; 1 mg/kg PO, 1st-2nd hour after administration) is reported as “significantly higher (P<0.01) than model group” and the “mechanical withdrawal threshold vs Pregabalin” value ([6]; 3 mg/kg PO) is reported as “significantly higher (P<0.05) than 30 mg/kg Pregabalin”. The “mechanical withdrawal threshold vs Pregabalin” value ([6]; 9 mg/kg PO) was “significantly higher (P<0.05) than 30 mg/kg Pregabalin”, the “mechanical withdrawal threshold, relation to dose” value ([6]; single dose 1, 3 or 9 mg/kg PO) was “dosage-dependent increase” and the “improvement of mechanical withdrawal threshold compared with Pregabalin” value ([6]; single dose PO) was “more effectively and longer”.

With `NCC1(CC(=O)O)CCCCC1` [Gabapentin, reference compound] the “mechanical withdrawal threshold vs model group” value (CCI model rats [5]; 50 mg/kg PO for 5 days) was “only kept the significant difference during 2nd-5th day”, the “heat pain threshold of diabetic neuropathic pain model” value [2] was “could improve the heat pain threshold” and the “mechanical withdrawal threshold vs model group” value (CCI model rats [1]; 50 mg/kg PO single dose) was “only remained significantly higher than model group during 1st-2nd hour”.

In the case of `CC(C)C[C@H](CN)CC(=O)O` [Pregabalin, reference compound], the “onset of action on mechanical withdrawal threshold” value ([6]; 30 mg/kg PO) is reported as “rapid action”.
